pIC50: −log10 of the molar value. Entries after “also recorded” stand apart in the source; their conditions may differ. Read-outs that look alike come from different tables or passages of the source.

Consider 3 compounds from patent publication US6972298B2, “Method of treating or inhibiting neutrophil chemotaxis by administering a MEK inhibitor” (Warner-Lambert Company, priority 2001, dated 2005).

The subject of one data set is IL-8 activation of ERK. As to the kind of experiment: IL-8 activation of ERK in human PMNs, Western blot with phospho-specific ERK antibody. To be noted: for inhibition of IL-8 activation of ERK at 0.1 μM: 0.1 μM inhibitor. The format is cell-based. Here is the method:
Activation of MAPK was examined by phospho-specific ERK antibody in isolated human PMNs that were stimulated with 3 nM of IL-8 for various periods of time (A). […] The effect of the inhibitors was monitored by measuring p-ERK activity by Western blotting. The blots were normalized using the ERK antibody.
(§1) Polymorphonuclear leukocytes (PMNs) were isolated from whole blood obtained from healthy human donors. Plasma was separated from the remainder of the blood using a Dextran density gradient. Red blood cells (RBCs) and PMNs were further isolated by centrifugation at 2500 rpm for 15 minutes, using a Lymphoprep sedimentation solution. RBCs were lysed with 0.2% NaCl, neutralized with 1.8% NaCl, and the remaining neutrophils were resuspended in RPMI binding buffer at a final concentration of 10 million cells/mL.
Neutrophils were preincubated with the respective inhibitor for 30 minutes at room temperature in 1.5-mL microfuge tubes prior to addition of IL-8 (3.125 nM). […] Thus, neutrophils were exposed to IL-8 for 5 minutes at room temperature, after which whole cell lysates were obtained via lysis with RIPA buffer and analyzed by Western blot analysis using phospho specific antibodies, p44/42 MAP (ERK) and p38 MAPK kinase. Standard Western blotting was performed using chemiluminescence. All blots were normalized with the respective nonphosphorylated antibodies.
To confirm IL-8 activation of ERK, neutrophils were stimulated with 3 nM of IL-8 for various periods of time, ranging from 0 to 30 minutes (FIG. 1A).
(§2) The role of PI3K in IL-8 activation of ERK has been controversial. […] In parallel, kinase assays were performed to examine the MEK1/2 activity in response to IL-8.
(In general: Immunoblotting shows a protein as a band on a membrane.)

Data set [1] deals with IL-8-stimulated neutrophil chemotaxis. Put plainly: In vitro neutrophil chemotaxis, IL-8, transwell chamber assay. The format is cell-based, human. To be noted: for inhibition at 0.01 µM: read-out: inhibition of chemotaxis at 0.01 μM, 0.01 μM inhibitor alone; for pIC50: 3.125 nM IL-8, 3 hours. Here is the method:
Subsequently, the cells were stimulated with 3.125 nM of IL-8 for a period of 3 hours at which time the migrated cells were quantified using a cell sorter as described elsewhere. Percent inhibition was calculated based on the differences in the number of migrated cells compared to IL-8 alone controls.
The migrated cells were quantitated as described, and the percent inhibition was represented.
Number of cells migrated was measured 3 hours after IL-8 stimulation and expressed as percent control. Each value represents the average ±S.E. obtained from at least three different donors with duplicates in each set.
as §1
The neutrophil chemotaxis assay was conducted with 1 million cells per well in […] polycarbonate membrane transwell plates (Corning-Costar, Cambridge, Mass.). The various inhibitors were prepared as 1 or 10 mM stock solutions in dimethyl sulphoxide (DMSO). Inhibitor dilutions were prepared in RPMI binding buffer, maintaining a constant final concentration of DMSO in all conditions. Neutrophils were preincubated with the respective inhibitor in the top well of the plate for 30 minutes at room temperature prior to exposure to IL-8. An equivalent concentration of the respective inhibitor was placed in the bottom well to prevent any concentration gradient. DMSO concentration was maintained in all wells as a vehicle control. […] Neutrophils that migrated completely across the 3-μM filter were quantitated using FACS analysis with appropriate forward and sideward scatter. Percentage inhibition relative to the positive control (IL-8 alone) was calculated for each condition after subtracting the blank reading (no IL-8).

For data set [2], the system named is IL-8-induced neutrophil recruitment to the skin. Put plainly: IL-8 skin recruitment model (in vivo rabbit neutrophil recruitment assay). The method, then: Three hours after the last dose, animals were injected with ^125I IL-8 (10μCi), and 10 minutes later various doses of cold (unlabeled) IL-8 was injected intradermally at local sites on the back of the rabbits. Sixty minutes later, the animals were sacrificed, punch biopsies were performed, and the radiation in the skin was measured using a gamma counter. Each value represents the average±standard deviation error of three representative experiments with three animals in each group and triplicates within each treatment. The asterisk indicates significant (p<0.05) differences between the respective treatments in control animals versus drug-administered animals. […]
In control rabbits, the vehicle was administered. […] The biopsies were weighed and sample-associated radioactivity was determined using a gamma counter (Packard Model #05005, Downers Grove, Ill.).
In each experiment, triplicate samples were obtained for each experimental condition. In studies where IL-8 was not tested or the highest 1-μg dose of IL-8 was not used, the data is expressed as either raw counts or adjusted counts. […] In dose-response studies where the 1-μg dose of IL-8 was used, the weight-normalization background (vehicle-treated skin) was subtracted from weight-normalized treated samples, and the data was then expressed as a percent maximal response to the 1-μg dose of IL-8. […]

A further data set has as its system MEK1/2. Put plainly: kinase assays of MEK1/2 activity in response to IL-8. To be noted: pre-treatment with inhibitor. Format: cell-based, human. Here is the method: as §2
The next data set concerns colon cancer cells. To be noted: read-out: IC50, decrease of endogenous constitutive MAPK activation or growth in soft agar; cited from earlier work.
The conditions of data set [3]: in vivo; cited from earlier work.
Another data set concerns PMNs. Put plainly: cytotoxicity on the PMNs. To be noted: higher concentrations of the drug.
A further data set is described as follows: oral bioavailability. To be noted: in vivo.
A further data set deals with IL-8-induced chemotaxis. To be noted: cited from earlier work.

For the compound `O=C(NOCC1CC1)c1ccc(F)c(F)c1Nc1ccc(I)cc1Cl` [2-(2-chloro-4-iodo-phenylamino)-N-cyclopropylmethoxy-3,4-difluoro-benzamide], in the data set with IL-8 activation of ERK (0.01 μM inhibitor), the “effect on IL-8-induced ERK activation at 0.01 μM” value is “blocks ERK activation completely”. The entries for the “inhibition of IL-8 activation of ERK at 0.1 μM” value in the data set on IL-8 activation of ERK and in the data set on IL-8 activation of ERK (listed as 2-(2-Chloro-4-iodo-phenylamino)-N-cyclopropylmethoxy-3,4-difluoro-benzamide) were “almost completely blocks; also recorded: completely inhibited” and “almost completely blocked”, respectively. For the same compound, the “inhibition of IL-8 activation of ERK” value with IL-8 activation of ERK (inhibitor 0 to 100 μM for 30 minutes, then IL-8 for 5 minutes) is listed as “dose dependent inhibition; also recorded: clearly blocked”. In addition, the “inhibition of chemotaxis at 0.001 μM” value in data set [1] (0.001 μM inhibitor, 3.125 nM IL-8) is listed as “minimal inhibition”. Moreover, the inhibition at 0.1 µM in data set [1] (Homo sapiens, Neutrophil, read-out: inhibition of chemotaxis at 0.1 nM IL-8, 0.1 μM inhibitor, 0.1 nM IL-8) is roughly 80%; in data set [1] (Homo sapiens, Neutrophil, read-out: inhibition of chemotaxis at 100 nM IL-8, 0.1 μM inhibitor, 100 nM IL-8), roughly 30%. Besides, the inhibition at 0.01 µM in [1] (Homo sapiens, Neutrophil) is roughly 50%. The pIC50 in [1] (Homo sapiens, Neutrophil) is 6.85; in the data set on colon cancer cells, 6.82. Moreover, the “maximal inhibition of IL-8-induced chemotaxis, compound alone” value in data set [1] (maximal block, single agent) stood at 60%. Also, the “decrease of IL-8-induced neutrophil recruitment in vivo” value in data set [2] (30 mg/kg PO three times at 8 hour intervals, higher IL-8 concentrations tested) is listed as roughly 50%. Besides, the “number of neutrophils recruited to the skin” value in data set [2] (30 mg/kg PO three times, all IL-8 concentrations tested) is “consistently decreased”. The “inhibition of IL-8 activation of MEK1/2” value in the data set on MEK1/2 is listed as “inhibited”. The “bioavailability, as recently described” value in data set [3] is reported as “bioavailable”.
For the compound `COC[C@H]1OC(=O)c2coc3c2[C@@]1(C)C1=C(C3=O)[C@@H]2CCC(=O)[C@@]2(C)C[C@H]1OC(C)=O` [Wortmannin, reference compound], in [1] (0.01 μM inhibitor alone, 0.01 µM), the “inhibition of chemotaxis at 0.01 μM” value is 28%. The inhibition at 0.001 µM in data set [1] (Homo sapiens, Neutrophil, read-out: inhibition of chemotaxis at 0.001 μM, 0.001 μM inhibitor, 3.125 nM IL-8) fell in the range of 25 to 30%. Further, in data set [1] (Homo sapiens, Neutrophil), the inhibition at 0.01 µM is roughly 30% and the pIC50 was 7.70. In data set [1] (Homo sapiens, Neutrophil, read-out: inhibition of chemotaxis at 1 μM, 1 μM inhibitor, 3.125 nM IL-8), the inhibition at 1 µM worked out at 100%. Further, in the data set with PMNs, the “cytotoxicity effects on the PMNs” value is on record as “No visible cytotoxicity effects”.
For the compound `COc1cccc(-c2cc(=O)c3ccccc3o2)c1N` [2-(2-amino-3-methoxy-phenyl)-chromen-4-one], the oral bioavailability entry in the data set “oral bioavailability” is “orally nonbioavailable”. Moreover, in the data set with IL-8-induced chemotaxis, the “inhibition of IL-8-induced chemotaxis in previous studies” value is “lack of inhibition”.

What is called inhibition is the change of the read-out against control, counted positive when it falls. A word on the pIC50: it is the IC50 on a negative log10 scale, so that one unit is a factor of ten.
